Experimental data published in ChEMBL document CHEMBL5604063, “ASAP - DENV-2 NS2B-NS3 protease fluorescence dose response” (2024).
Where “and” joins values, the source holds several entries; their conditions need not be identical. Identical values can stand only once.

Experiments:
[1] = target: T1, Genome polyprotein (dengue virus type 2, UniProt P29990); assay type: functional, Thailand/16681/1984
[2] = target: T1, Genome polyprotein; assay type: functional, Thailand/16681/1984; remark: listed apart in the source

T1 sequence (P29990 1346-1475 limits assumed): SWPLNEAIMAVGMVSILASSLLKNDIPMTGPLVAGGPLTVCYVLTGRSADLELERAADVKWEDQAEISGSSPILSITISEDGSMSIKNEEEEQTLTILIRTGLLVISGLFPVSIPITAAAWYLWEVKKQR
T1 sequence (P29990 1476-2093 limits assumed): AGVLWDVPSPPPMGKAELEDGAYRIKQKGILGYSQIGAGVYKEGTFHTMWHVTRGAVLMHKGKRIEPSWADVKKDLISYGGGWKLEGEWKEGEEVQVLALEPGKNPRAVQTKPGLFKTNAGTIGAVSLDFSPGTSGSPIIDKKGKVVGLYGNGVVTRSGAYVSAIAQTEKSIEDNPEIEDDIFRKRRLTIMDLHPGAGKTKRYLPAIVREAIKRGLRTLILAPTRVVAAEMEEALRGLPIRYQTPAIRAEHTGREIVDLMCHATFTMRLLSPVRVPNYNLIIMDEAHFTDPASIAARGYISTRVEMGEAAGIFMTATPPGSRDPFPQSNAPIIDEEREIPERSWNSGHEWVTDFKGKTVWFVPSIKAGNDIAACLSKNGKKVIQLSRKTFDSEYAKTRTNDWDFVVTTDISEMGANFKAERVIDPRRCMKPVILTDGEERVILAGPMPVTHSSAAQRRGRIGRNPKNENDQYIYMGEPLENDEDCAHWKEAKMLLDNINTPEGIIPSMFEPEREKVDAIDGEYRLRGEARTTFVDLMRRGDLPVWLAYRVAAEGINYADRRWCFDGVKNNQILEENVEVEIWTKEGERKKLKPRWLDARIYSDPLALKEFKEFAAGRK

Structure (SMILES)	IC50 [1]	IC50 [2]
Fc1cc(CNc2ccc3c(c2)CNC3)c2cc[nH]c2c1	> 99.5 µM	> 100 µM
O=C(Nc1ccc2c(c1)CNC2)c1cc(F)cc(-c2c[nH]c(=O)c(F)c2)c1	> 99.5 µM	> 100 µM
C=Cc1cc2c(cc1NC(=O)c1cc(F)cc3[nH]ncc13)CNC2	52.7 µM	32.8 µM
COc1cc(C(=O)Nc2ccc3c(c2)CNC3)cc2cnn(C)c12	> 99.5 µM	> 100 µM
O=C(Nc1ccc2c(c1)CNC2)c1cc(F)cc2[nH]c(-c3ccccc3F)nc12	7.91 µM and 4.23 µM	18.5 µM and 33.8 µM
O=C(Nc1cc([C@H]2CCOC2)ccn1)c1cc(Cl)cc2[nH]ncc12	> 99.5 µM	> 100 µM
Cc1nn(C)c(C)c1[C@H]1CCCN1C(=O)Nc1ccc2c(c1)CNC2	> 99.5 µM	> 100 µM
O=C(Nc1cc2c(cc1C1CC1)CNC2)c1cc(F)cc2[nH]ncc12	70.9 µM	62.5 µM
C#C[C@H](Nc1cc([C@H]2CCOC2)ccn1)c1cc(C2CC2)n(C)n1	> 99.5 µM	> 100 µM
CC(C)NC(=O)[C@H](Nc1ccc2c(c1)CN(CC(F)F)C2)c1cc(Cl)cc2[nH]ncc12	> 99.5 µM	> 100 µM
O=C(Nc1ccc2c(c1)CNC2)c1cc(F)cc(/C=C/c2ccccc2)c1	42.1 µM	57.3 µM
O=C(NCC(F)F)[C@H](Nc1ccc2c(c1)CNC2)c1cc(Cl)cc2[nH]ncc12	> 99.5 µM	> 100 µM
Cn1ncc2c(C(=O)Nc3ccc4c(c3)CNC4)cc(Cl)cc21	> 99.5 µM	> 100 µM
O=C(Nc1ccc2c(c1)CN[C@H]2CCO)c1cc(F)cc2[nH]ncc12	50.8 µM	23.9 µM and 29.9 µM
CCc1cccc(-c2nc3c(C(=O)Nc4ccc5c(c4)CNC5)cc(F)cc3[nH]2)c1	14.5 µM and 7.53 µM	88.9 µM and > 100 µM
Cc1cnccc1-c1cc(NC(=O)c2cc(F)cc3[nH]ncc23)cc2c1CNC2	> 99.5 µM	65.4 µM
O=C(Nc1ccc2c(c1)CNC2)c1cc(F)cc2[nH]c(-c3ccc(F)cc3)nc12	4.84 µM and 4.4 µM	9.17 µM and 43.9 µM
O=C(O)CCCc1cc(NC(=O)c2cc(F)cc3[nH]ncc23)cc2c1CNC2	> 99.5 µM	48.7 µM
O=C(Nc1ccc2c(c1)CNC2)c1cc(Cl)cc2nn(C3CCC3)cc12	> 99.5 µM	89.2 µM
Cc1cc(-c2cc(F)cc(C(=O)Nc3ccc4c(c3)CNC4)c2)[nH]n1	> 99.5 µM	> 100 µM
O=C(Nc1ccc2c(c1)CNC2)c1cc(Cl)cc2c1cnn2C1CCOCC1	> 99.5 µM	> 100 µM

Structure (SMILES)	IC50 [1]	IC50 [2]
Cn1cc2c(C(=O)Nc3ccc4c(c3)CNC4)cc(Cl)cc2n1	> 99.5 µM	> 100 µM
O=C(Nc1cc([C@H]2CCOC2)ccn1)c1cc(F)c2[nH]ccc2c1	> 99.5 µM	> 100 µM
CSCCNC(=O)[C@H](Nc1ccc2c(c1)CNC2)c1cc(Cl)cc(C2CC2)c1	> 99.5 µM	> 100 µM
C=CC[C@H]1NCc2cc(N[C@H](C(=O)NCC(F)F)c3cc(Cl)cc(C4CC4)c3)ccc21	> 99.5 µM	> 100 µM
CS(=O)(=O)N1CC[C@]2(C1)C(=O)Nc1cccc(C(=O)Nc3ccc4c(c3)CNC4)c12	> 99.5 µM	> 100 µM
COc1ccc([C@H]2C[C@H](C)CN2C(=O)Nc2ccc3c(c2)CNC3)cc1	> 99.5 µM	> 100 µM
Cc1c(C(=O)Nc2cc(-c3cccnc3)ccn2)cc(CC(C)(C)C)n1C	> 99.5 µM	> 100 µM
CSCCCNC(=O)[C@H](Nc1ccc2c(c1)CNC2)c1cc(Cl)cc(C2CC2)c1	> 99.5 µM	> 100 µM
O=C(Nc1cc(-c2cccnc2)ccn1)c1cnn2c1CCCC2	18 µM and 13.8 µM	16.5 µM and 19.7 µM
CC(C)(C)c1noc2nc(C(=O)Nc3ccc4c(c3)CNC4)ccc12	> 99.5 µM	> 100 µM
CC(C)(c1nc2c(C(=O)Nc3ccc4c(c3)CNC4)cc(F)cc2[nH]1)S(C)(=O)=O	33.6 µM and 26.3 µM	34.3 µM and 51.7 µM
NCCc1csc2cc(C(=O)Nc3ccc4c(c3)CNC4)ccc12	> 99.5 µM	> 100 µM
O=C(Nc1ccc2c(c1)CN[C@H]2C[C@H](O)CO)c1cc(Cl)cc2[nH]ncc12	> 99.5 µM	80.2 µM
Cn1c(=O)[nH]c2cc(C(=O)Nc3ccc4c(c3)CNC4)cc(Br)c21	> 99.5 µM	60 µM and 52.9 µM
O=C(Nc1ccc2c(c1)CNC2)c1ccc2c(Br)csc2c1	58.6 µM	> 100 µM
C=C[C@H]1NCc2cc(NC(=O)c3cc(F)cc4[nH]ncc34)ccc21	86.6 µM	34 µM
O=C(Nc1cc(-c2cccnc2)ccn1)c1cc(C2CC2)oc1C1CC1	> 99.5 µM	> 100 µM
O=C(Nc1cc2c(c(C3=CCS(=O)(=O)CC3)c1)CNC2)c1cc(F)cc2[nH]ncc12	41.1 µM and 29.7 µM	34.6 µM and 46.6 µM
O=C(Nc1cc2c(c(-c3ccnnc3)c1)CNC2)c1cc(Cl)cc2[nH]ncc12	> 99.5 µM	98.4 µM
O=C(Nc1ccc2c(c1)CNC2)c1cc(F)cc(-c2ccncc2)c1	> 99.5 µM	> 100 µM
O=C(Nc1cc2c(c(C3=CCOCC3)c1)CNC2)c1cc(F)cc2[nH]ncc12	29.7 µM and 19.8 µM	27.2 µM and 45.2 µM
